Results reported in ChEMBL document CHEMBL5550202, “Rationally Designed Highly Potent NKT Cell Agonists with Different Cytokine Selectivity through Hydrogen-Bond Interaction” (J Med Chem, 2024).
The source made the active and inactive calls. No cut-off for these calls is given here.

Key:
[1] = test system: Splenocyte; assay: Induction of Th1-specific IFN-gamma secretion in C57BL/6 mouse splenocytes assessed as increase in IFN-gamma level in supernatant at 100 nM treated as liposomal formulation preincubated for 30 mins with anti-CD1d monoclonal antibody followed by compound addition and measured after 72 hrs by ELISA; type: functional, cell-based
[2] = test system: Splenocyte; assay: Cytotoxicity against C57BL/6 mouse splenocytes assessed as reduction in cell viability at 10 to 1000 nM treated as liposomal formulation measured after 72 hrs by MTT assay; type: toxicity, cell-based; settings: 1 µM, dose 10-1000 nM
[3] = test system: Splenocyte; assay: Induction of Th2-specific IL-4 secretion in C57BL/6 mouse splenocytes assessed as increase in IL-4 level in supernatant at 100 nM treated as liposomal formulation preincubated for 30 mins with anti-CD1d monoclonal antibody followed by compound addition and measured after 72 hrs by ELISA; type: functional, cell-based
[4] = test system: B16-F10; assay: (§1) Antitumor activity against mouse B16-F10 cells implanted in C57BL/6 mouse assessed as reduction in metastatic nodules in lung at 0.58 nmol, ip administered as single dose in liposomal formulation for 1 day followed by tumor inoculation and measured after 3 weeks; type: functional, organism-based; settings: time 22.0 day
[5] = test system: Splenocyte; assay: (§2) Ex vivo induction of Natural killer T cell mediated dendritic cell activation in C57BL/6 mouse splenocytes assessed as increase in proportion of IFN-gamma positive natural killer cells at 2.33 nmol, ip administered as single dose in liposomal formulation measured after 24 hrs by flow cytometry analysis (reference value: 2.74%); type: functional
[6] = test system: Splenocyte; assay: as §2, with “CD80 expression on CD11c-positive dendritic” for “proportion of IFN-gamma positive natural killer”, “8.4%)” for “2.74%)”; type: functional
[7] = test system: Splenocyte; assay: as §2, with “CD86 expression on CD11c-positive dendritic” for “proportion of IFN-gamma positive natural killer”, “8.9%)” for “2.74%)”; type: functional
[8] = test system: Mus musculus; assay: Induction of Th1/2-balanced cytokine response in BALB/c mouse assessed as activation of immune cells by measuring increase in IL-12 release in serum at 2.33 nmol, ip administered as single dose in liposomal formulation and measured at 6 hrs by ELISA; type: functional, organism-based
[9] = test system: B16-F10; assay: as §1, with “inhibition of” for “reduction in metastatic nodules in”, “lung metastasis” for “lung”, “weeks by H and E staining based analysis relative to control” for “weeks”; type: functional; settings: time 22 day
[10] = test system: Mus musculus; assay: Induction of Th1/2-balanced cytokine response in BALB/c mouse assessed as increase in IL-4 secretion in serum at 0.5 ug, ip administered as single dose in liposomal formulation and measured after 24 hrs by ELISA; type: functional, organism-based; settings: dose 0.5 µg
[11] = molecular target: T1, Antigen-presenting glycoprotein CD1d (Mus musculus) (UniProt P11609+P11610); assay: Binding affinity to Cd1D in C57BL/6 mouse BMDC cells assessed as glycolipid presentation by measuring glycolipid/Cd1D complex formation at 100 nM treated as liposomal formulation and measured at 6 to 24 hrs by L363 cell surface staining based flow cytometry analysis; settings: time 6-24 hrs
[12] = Induction of Th1-specific IFN-gamma secretion in C57BL/6 mouse splenocytes assessed as fold increase in IFN-gamma level in supernatant at 10 nM treated as liposomal formulation and measured after 72 hrs by ELISA relative to alpha-galactosylceramide; type: functional, Splenocyte
[13] = molecular target: T1, Antigen-presenting glycoprotein CD1d (Mus musculus); assay: Binding affinity to Cd1D in C57BL/6 mouse BMDC cells assessed as glycolipid presentation by measuring glycolipid/Cd1D complex formation at 100 nM treated as liposomal formulation preincubated for 12 hrs and cells further recultured without compound for 2 to 12 hrs by pulse-chase analysis; type: cell-based
[14] = Induction of Th1-specific IFN-gamma secretion in C57BL/6 mouse splenocytes assessed as fold increase in IFN-gamma level in supernatant at 1 nM treated as liposomal formulation and measured after 72 hrs by ELISA relative to alpha-galactosylceramide; type: functional, Splenocyte
[15] = test system: B16-F10; assay: Antitumor activity against mouse B16-F10 cells implanted in C57BL/6 mouse assessed as reduction in number of metastatic nodules in lung at 0.58 nmol, ip administered as single dose in liposomal formulation for 1 day followed by tumor inoculation and measured after 3 weeks relative to control; type: functional; parameters: scale not given: the % may be the effect or the level left; settings: time 22 day
[16] = molecular target: T1, Antigen-presenting glycoprotein CD1d (Mus musculus); assay: Binding affinity to Cd1D in intact C57BL/6 mouse BMDC cells assessed as glycolipid/Cd1D complex formation by measuring strong staining of cell membrane at 100 nM treated as liposomal formulation and measured after 18 hrs by L363 mAb staining based confocal microscopic analysis
[17] = test system: Mus musculus; assay: Induction of Th1/2-balanced cytokine response in BALB/c mouse assessed as increase in IFN-gamma secretion in serum at 0.5 ug, ip administered as single dose in liposomal formulation and measured after 24 hrs by ELISA; type: functional, organism-based; settings: dose 0.5 µg
[18] = test system: Mus musculus; assay: Induction of Th1/2-balanced cytokine response in C57BL/6 mouse assessed as increase in IL-4 secretion in serum at 2.33 nmol, ip administered as single dose in liposomal formulation and measured for 48 hrs by ELISA; type: functional, organism-based
[19] = test system: Mus musculus; assay: Induction of Th1/2-balanced cytokine response in BALB/c mouse assessed as increase in IFN-gamma secretion in serum at 2.33 nmol, ip administered as single dose in liposomal formulation and measured after 24 hrs by ELISA; type: functional, organism-based
[20] = test system: Splenocyte; assay: Induction of Th2-specific IL-4 secretion in C57BL/6 mouse splenocytes assessed as increase in IL-4 level in supernatant at 1 to 10 nM treated as liposomal formulation and measured after 72 hrs by ELISA; type: functional, cell-based; settings: dose 1-10 nM
[21] = test system: Mus musculus; assay: Induction of Th1/2-balanced cytokine response in C57BL/6 mouse assessed as increase in IFN-gamma secretion in serum at 2.33 nmol, ip administered as single dose in liposomal formulation and measured for 48 hrs by ELISA; type: functional, organism-based
[22] = test system: B16-F10; assay: Antitumor activity against mouse B16-F10 cells implanted in C57BL/6 mouse assessed as suppression of tumor progression at 0.58 nmol, ip administered as single dose in liposomal formulation for 1 day followed by tumor inoculation and measured after 3 weeks; type: functional, organism-based; settings: time 22.0 day
[23] = test system: Mus musculus; assay: Induction of Th1/2-balanced cytokine response in BALB/c mouse assessed as increase in IFN-gamma/IL-4 secretion ratio at 0.5 ug, ip administered as single dose in liposomal formulation and measured after 24 hrs by ELISA; type: functional, organism-based; settings: dose 0.5 µg
[24] = test system: Mus musculus; assay: Induction of Th1/2-balanced cytokine response in BALB/c mouse assessed as fold increase in IL-4 secretion in serum at 2.33 nmol, ip administered as single dose in liposomal formulation and measured after 6 to 48 hrs by ELISA; type: functional, organism-based; settings: time 6-48 hrs
[25] = test system: Mus musculus; assay: Induction of Th1/2-balanced cytokine response in BALB/c mouse assessed as fold increase in IL-4 secretion in serum at 2.33 nmol, ip administered as single dose in liposomal formulation and measured after 2 hrs by ELISA relative to control; type: functional
[26] = test system: Mus musculus; assay: Induction of Th1/2-balanced cytokine response in BALB/c mouse assessed as fold increase in IFN-gamma secretion in serum at 2.33 nmol, ip administered as single dose in liposomal formulation and measured after 24 hrs by ELISA relative to control; type: functional

Row | Structure (SMILES) | Activity [1] | Activity [2] | Activity [3] | Activity [4] | Activity [5] [%] | Activity [6] [%] | Activity [7] [%] | Activity [8] | Activity [10] | Activity [11] | fold change (FC) [12] | fold change (FC) [14] | Activity [15] [%] | Activity [16] | Activity [17] | Activity [18] | Activity [20] | Activity [21] | Activity [23] | also measured
1 | CCCCCCCCCCCCCC[C@@H](O)[C@@H](O)[C@H](CO[C@H]1O[C@H](CO)[C@H](O)[C@H](O)[C@H]1O)NC(=O)CCCCCCCCCCCCNS(=O)(=O)CCCCCCCCCCC | inactive | Non-Toxic | inactive |  |  |  |  |  |  |  |  |  |  |  |  |  |  |  |  | 
2 | CCCCCCCCCCCCCCCCCCCCCCCCCC(=O)N[C@@H](CO[C@H]1O[C@H](CO)[C@H](O)[C@H](O)[C@H]1O)[C@H](O)[C@H](O)CCCCCCCCCCCCCC [RGI-7000] | inactive | Non-Toxic | inactive | Active | 6.11 | 27.6 | 32 |  |  |  |  |  |  |  |  |  |  |  |  | 
3 | CCCCCCCCCCCCCC[C@@H](O)[C@@H](O)[C@H](CO[C@H]1O[C@H](CO)[C@H](O)[C@H](O)[C@H]1O)NC(=O)CCCCCCCCCNS(=O)(=O)CCCCCCCCCCCCCC | inactive | Non-Toxic | inactive |  |  |  |  |  |  |  |  |  |  |  |  |  |  |  |  | 
4 | CCCCCCCCCCCCCC[C@@H](O)[C@@H](O)[C@H](CO[C@H]1O[C@H](CO)[C@H](O)[C@H](O)[C@H]1O)NC(=O)CCCCCCCCCCCCCNS(=O)(=O)CCCCCCCCCC | inactive | Non-Toxic | inactive |  |  |  |  |  |  |  |  |  |  |  |  |  |  |  |  | 
5 | CCCCCCCCCCCCCC[C@@H](O)[C@@H](O)[C@H](CO[C@H]1O[C@H](CO)[C@H](O)[C@H](O)[C@H]1O)NC(=O)CCCCCCCCCCNS(=O)(=O)CCCCCCCCCCCCC | inactive | Non-Toxic | inactive | Active | 11.2 | 32.9 | 44.6 | Active | Active | Active | 7.7 | 9.6 | 82 | Active | Active | Active | inactive | Active | Active | inhibition (INH) [9]: ~100%; Activity [13]: Active; Activity [19]: Active; Activity [22]: Active
6 | CCCCCCCCCCCCCC[C@@H](O)[C@@H](O)[C@H](CO[C@H]1O[C@H](CO)[C@H](O)[C@H](O)[C@H]1O)NC(=O)CCCCCCCCCCCNS(=O)(=O)CCCCCCCCCCCC | inactive | Non-Toxic | inactive | Active | 12 | 33.9 | 46.8 | Active | Active | Active | 4.7 | 6.2 | 66 | Active | Active | Active | inactive | Active | Active | Activity [24]: inactive; fold change (FC) [25]: 4.7; fold change (FC) [26]: 7
